# Data from US10584115B2, “Substituted pyridine and pyrazine BMI-1 inhibitors” (PTC Therapeutics, Inc., priority 2013, dated 2020).
# Tested on: Bmi-1 protein
# Experiment: Sandwich ELISA Assay (Bmi-1 protein level in HT-1080 cells after compound treatment)
# Format: cell-based
# Conditions: Table 1, Bmi-1 sandwich ELISA, read-out: ELISA EC50 value for Bmi-1 protein
# Procedure, shortened: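 HT-1080 cells exposed to compounds for 40–48 h at 37 °C (0.5% DMSO final), then lysed. Bmi-1 in lysates measured by sandwich ELISA (mouse monoclonal capture, rabbit anti-Bmi-1 detection, HRP anti-rabbit, TMB), read at OD450 with OD570 reference against a recombinant Bmi-1 standard curve (0–8000 pg/mL).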
row,SMILES,EC50
1,"Cc1nc2ccccc2n1-c1cncc(Nc2ccc(C(F)(F)F)c(C#N)c2)n1 [compound 517, 5-{[6-(2-methyl-1H-benzimidazol-1-yl)pyrazin-2-yl]amino}-2-(trifluoromethyl)benzonitrile]",0.1 to 3 µM
2,Cc1nc2ccccc2n1-c1cncc(Nc2ccc(C(F)(F)F)c(CO)c2)n1 [compound 519],0.01 to 0.1 µM
3,"CCc1nn2ccccc2c1-c1cncc(Nc2ccc(C(F)(F)F)cc2)n1 [compound 520, 6-(2-ethylpyrazolo[1,5-a]pyridin-3-yl)-N-[4-(trifluoromethyl)phenyl]pyrazin-2-amine]",0.001 to 0.01 µM
4,"CCc1nn2ccccc2c1-c1cncc(Nc2ccc(OC(F)F)cc2)n1 [compound 521, N-[4-(difluoromethoxy)phenyl]-6-(2-ethylpyrazolo[1,5-a]pyridin-3-yl)pyrazin-2-amine]",0.001 to 0.01 µM
5,"CCc1nn2ccccc2c1-c1cncc(Nc2ccc(OC(F)F)c(F)c2)n1 [compound 522, N-[4-(difluoromethoxy)-3-fluorophenyl]-6-(2-ethylpyrazolo[1,5-a]pyridin-3-yl)pyrazin-2-amine]",0.01 to 0.1 µM
6,"CCc1nn2ccccc2c1-c1cncc(Nc2ccc(OC(F)(F)F)cc2)n1 [compound 523, 6-(2-ethylpyrazolo[1,5-a]pyridin-3-yl)-N-[4-(trifluoromethoxy)phenyl]pyrazin-2-amine]",0.01 to 0.1 µM
7,"Cc1nc2ccccc2n1-c1cncc(Nc2ccc(C(F)(F)F)c(CN)c2)n1 [compound 524, N-[3-(aminomethyl)-4-(trifluoromethyl)phenyl]-6-(2-methyl-1H-benzimidazol-1-yl)pyrazin-2-amine]",0.1 to 3 µM
8,"Cc1nc2ccccc2n1-c1c[n+]([O-])cc(Nc2ccc(C(F)(F)F)cc2)n1 [compound 525, 6-(2-methyl-1H-benzimidazol-1-yl)-N-[4-(trifluoromethyl)phenyl]pyrazin-2-amine 4-oxide]",0.01 to 0.1 µM
9,"CCc1nn2ccccc2c1-c1cc(C#N)cc(Nc2ccc(C(F)(F)F)cc2)n1 [compound 526, 2-(2-ethylpyrazolo[1,5-a]pyridin-3-yl)-6-{[4-(trifluoromethyl)phenyl]amino}pyridine-4-carbonitrile]",0.01 to 0.1 µM
10,"CCc1nn2ccccc2c1-c1cc(C#N)cc(Nc2ccc(OC(F)F)cc2)n1 [compound 527, 2-{[4-(difluoromethoxy)phenyl]amino}-6-(2-ethylpyrazolo[1,5-a]pyridin-3-yl)pyridine-4-carbonitrile]",0.01 to 0.1 µM
11,"CCc1nn2ccccc2c1-c1cc(C#N)cc(Nc2ccc(OC(F)F)c(F)c2)n1 [compound 528, 2-{[4-(difluoromethoxy)-3-fluorophenyl]amino}-6-(2-ethylpyrazolo[1,5-a]pyridin-3-yl)pyridine-4-carbonitrile]",0.01 to 0.1 µM
12,"CCc1nn2ccccc2c1-c1cc(C#N)cc(Nc2ccc(OC(F)(F)F)cc2)n1 [compound 529, 2-(2-ethylpyrazolo[1,5-a]pyridin-3-yl)-6-{[4-(trifluoromethoxy)phenyl]amino}pyridine-4-carbonitrile]",0.1 to 3 µM
13,"[O-][n+]1cc(Nc2ccc(OC(F)F)cc2)nc(-n2c(C3CC3)nc3cc(F)c(F)cc32)c1 [compound 530, 6-(2-cyclopropyl-5,6-difluoro-1H-benzimidazol-1-yl)-N-[4-(difluoromethoxy)phenyl]pyrazin-2-amine 4-oxide]",0.01 to 0.1 µM
14,"Cc1nc2ccccc2n1-c1c[n+]([O-])cc(Nc2ccc(OC(F)F)cc2)n1 [compound 531, N-[4-(difluoromethoxy)phenyl]-6-(2-methyl-1H-benzimidazol-1-yl)pyrazin-2-amine 4-oxide]",0.01 to 0.1 µM
15,"Cc1nc2ccc(F)cc2n1-c1c[n+]([O-])cc(Nc2ccc(C(F)(F)F)cc2)n1 [compound 532, 6-(6-fluoro-2-methyl-1H-benzimidazol-1-yl)-N-[4-(trifluoromethyl)phenyl]pyrazin-2-amine 4-oxide]",0.01 to 0.1 µM
16,"[O-][n+]1cc(Nc2ccc(C(F)(F)F)cc2)nc(-n2c(C3CC3)nc3ncc(F)cc32)c1 [compound 533, 6-(2-cyclopropyl-6-fluoro-1H-imidazo[4,5-b]pyridin-1-yl)-N-[4-(trifluoromethyl)phenyl]pyrazin-2-amine 4-oxide]",0.01 to 0.1 µM
17,"[O-][n+]1cc(Nc2ccc(C(F)(F)F)cc2)nc(-c2c(C(F)(F)F)nc3ccccn23)c1 [compound 534, 6-[2-(trifluoromethyl)imidazo[1,2-a]pyridin-3-yl]-N-[4-(trifluoromethyl)phenyl]pyrazin-2-amine 4-oxide]",0.01 to 0.1 µM
18,"Cc1nn2ccc(F)cc2c1-c1cncc(Nc2ccc(C(F)(F)F)cc2)n1 [compound 537, 6-(5-fluoro-2-methylpyrazolo[1,5-a]pyridin-3-yl)-N-[4-(trifluoromethyl)phenyl]pyrazin-2-amine]",0.01 to 0.1 µM
19,"[O-][n+]1cc(Nc2ccc(C(F)(F)F)cc2)nc(-c2c(C(F)(F)F)nc3ccc(F)cn23)c1 [compound 538, 6-[6-fluoro-2-(trifluoromethyl)imidazo[1,2-a]pyridin-3-yl]-N-[4-(trifluoromethyl)phenyl]pyrazin-2-amine 4-oxide]",0.001 to 0.01 µM
20,"CCc1nn2ccc(Cl)cc2c1-c1cncc(Nc2ccc(C(F)(F)F)cc2)n1 [compound 539, 6-(5-chloro-2-ethylpyrazolo[1,5-a]pyridin-3-yl)-N-[4-(trifluoromethyl)phenyl]pyrazin-2-amine]",0.01 to 0.1 µM
21,"Cc1nc2ncc(Cl)cc2n1-c1cncc(Nc2ccc(OC(F)F)cc2)n1 [compound 540, 6-(6-chloro-2-methyl-1H-imidazo[4,5-b]pyridin-1-yl)-N-[4-(difluoromethoxy)phenyl]pyrazin-2-amine]",< 0.001 µM
22,"Cc1nc2ncc(Cl)cc2n1-c1cncc(Nc2ccc(OC(F)F)c(F)c2)n1 [compound 541, 6-(6-chloro-2-methyl-1H-imidazo[4,5-b]pyridin-1-yl)-N-[4-(difluoromethoxy)-3-fluorophenyl]pyrazin-2-amine]",0.001 to 0.01 µM
23,"Cc1nc2ncc(Cl)cc2n1-c1cncc(Nc2ccc(OC(F)(F)F)cc2)n1 [compound 542, 6-(6-chloro-2-methyl-1H-imidazo[4,5-b]pyridin-1-yl)-N-[4-(trifluoromethoxy)phenyl]pyrazin-2-amine]",0.01 to 0.1 µM
24,"CCc1nc2ncc(Cl)cc2n1-c1cncc(Nc2ccc(C(F)(F)F)cc2)n1 [compound 543, 6-(6-chloro-2-ethyl-1H-imidazo[4,5-b]pyridin-1-yl)-N-[4-(trifluoromethyl)phenyl]pyrazin-2-amine]",0.1 to 3 µM
25,"CCc1nc2ncc(Cl)cc2n1-c1cncc(Nc2ccc(OC(F)F)cc2)n1 [compound 544, 6-(6-chloro-2-ethyl-1H-imidazo[4,5-b]pyridin-1-yl)-N-[4-(difluoromethoxy)phenyl]pyrazin-2-amine]",< 0.001 µM
26,"CCc1nc2ncc(Nc3ccc(OC(F)F)cc3)cc2n1-c1cncc(Nc2ccc(OC(F)F)cc2)n1 [compound 545, N-[4-(difluoromethoxy)phenyl]-1-(6-{[4-(difluoromethoxy)phenyl]amino}pyrazin-2-yl)-2-ethyl-1H-imidazo[4,5-b]pyridin-6-amine]",0.1 to 3 µM
27,"CCc1nc2ncc(Cl)cc2n1-c1cncc(Nc2ccc(OC(F)F)c(F)c2)n1 [compound 546, 6-(6-chloro-2-ethyl-1H-imidazo[4,5-b]pyridin-1-yl)-N-[4-(difluoromethoxy)-3-fluorophenyl]pyrazin-2-amine]",0.001 to 0.01 µM
